Data on 3 compounds can be found in US5030624A, “R-diastereomer of an N^6 -[(2-hydroxypropyl)aryl]adenosine and its medicinal uses” (G. D. Searle & Co., priority 1988, dated 1991).

Series [1] in a line: Solubility of the separated diastereomers. Particulars: for solubility in MeOH (in words): S isomer and R isomer compared. In kind it is physicochemical.
Series [2] has as its system adenosine Al receptor in the granular juxtaglomerular cells of the kidney. Conditions: Federation Proceedings 44:879 & 1643, 1985; cited from earlier work.
For series [3], the system named is mice. Description: Behavioral toxicity at various times in mice. On MOTOR DEPRESSION: key: +: toxic symptom observed; +*: toxic symptom observed; *2/7. On PTOSIS: key: +: toxic symptom observed; +*: toxic symptom observed; *2/7. On RESPIRATORY DEPRESSION: key: +: toxic symptom observed; +*: toxic symptom observed; *2/7. On loss of righting reflex: key: +: toxic symptom observed; +*: toxic symptom observed; *2/7. In kind it is in vivo. The protocol: The mice had previously been trained to remain on a rotating rod. After dosing, the percent of mice unable to remain on the rotating rod was determined. […] The mice were also observed at various time intervals for behavioral signs of toxicity.
In series [4] the test system is plasma renin activity (PRA). Put plainly: Change in plasma renin activity (PRA) in the bilateral renal artery ligated rat. In kind it is in vivo, rat (Sprague-Dawley). Conditions: 1 mg/kg I.V.; for prevention of PRA increases / inhibition of renin release (in words): 30 and 60 minutes; for CHANGE IN PRA: ^+ different from vehicle, p < .05. The protocol:
Adenosine Al receptor stimulation will inhibit the release of renin from the kidney. A stimulus for the release of renin is renal ischemia. The ability of the compounds of the present invention to prevent an increase in PRA following renal ischemia was tested in rats with both renal arteries ligated. Sprague-Dawley rats were anesthetized with ether and the renal arteries were ligated. Three to five hours after anesthesia, arterial blood was sampled and compounds I and II were administered in polyethylene glycol at 1 mg/kg I.V. At 30 and 60 minutes after administration, arterial blood was sampled for PRA measurement by the method of Sealy, J. E. et al., Cardiovasc. Med. 2:1079, 1977.

Series [5] relates to hypertensive models. Conditions: Federation Proceedings 44:879 & 1643, 1985; cited from earlier work.
Series [6] concerns mice. Put plainly: Ataxia on rotating rod in mice. Conditions: ip, 0.5 or 3 hours. In kind it is in vivo. The protocol:
Adenosine analogs tend to produce sedation and central nervous system depression which have prevented their therapeutic utility. The compounds of the invention, at doses which lower arterial pressure in the SHR, show no evidence of CNS depression. The ataxia produced by compounds of the present invention was measured in mice by injecting the compounds IP at doses of 32, 56, or 75 mg/kg in an aqueous suspension, n=7 per dose. The mice had previously been trained to remain on a rotating rod. After dosing, the percent of mice unable to remain on the rotating rod was determined. […] The mice were also observed at various time intervals for behavioral signs of toxicity.

In series [7] the test system is spontaneously hypertensive rats (SHR). Description: Effects on MAP and HR in conscious spontaneously hypertensive rats (SHR), I.V. or intragastric. In kind it is in vivo, rat. The protocol:
The effects of compounds I and II were tested intravenously or intragastrically in conscious spontaneously hypertensive rats (SHR). The rats were anesthetized with ether and the left carotid artery and right jugular vein were cannulated with polyethylene tubing. The rats were allowed three to five hours recovery from anesthesia for the I.V. studies and 12 to 18 hours for the oral studies. Mean arterial pressure (MAP, in mm/Hg) and heart rate (HR, beats/min.) were measured from the artery; intravenous administration of compounds was performed by injection into the vein. Oral administration was performed by gastric intubation. Compounds were dissolved in DMSO for I.V. studies and injected in volumes of 100 μl/kg or less (N=5 per compound). Doses were 3 to 1,000 μg/kg. Compounds were dissolved in polyethylene glycol for oral administration and injected in volumes of 1 ml/kg at a dose of 20 mg/kg/day for three days (N=3 to 6 per compound).
The resting MAP and HR for the SHR ranged between 160-200 mm Hg and 330/350 b/min., respectively.
Thus, the effects of the three compounds on MAP and HR were indistinguishable both by I.V. and oral administration.

Setting [8] is: SHR, 20 mg/kg/day intragastric, day 2 of oral administration, N=3 to 6.

“Also recorded” adds a separate entry of the source.

Turning to `OC[C@H]1O[C@@H](n2cnc3c(NC[C@H](O)COc4cccc5ccccc45)ncnc32)[C@H](O)[C@@H]1O` [S isomer], the “solubility in MeOH (in words)” value in series [1] was “less soluble in MeOH”.

Turning to `OC[C@H]1O[C@@H](n2cnc3c(NCC(O)COc4cccc5ccccc45)ncnc32)[C@H](O)[C@@H]1O` (mixture of isomers) [Compound I, N(6)-[2-hydroxy-3-(1-naphthyloxy)propyl]-adenosine], in series [2], the “binding to the adenosine Al receptor, inhibition of renin release (in words)” value was “binds to the adenosine Al receptor in the granular juxtaglomerular cells of the kidney to inhibit release of renin into the plasma”. Moreover, the “toxicity (in words)” value in series [3] (18-20 hours, 75 mg/kg ip) was “still producing several of the toxic symptoms”. Further, in series [3] (18-20 hr, 75 mg/kg ip), the “FLACCIDITY, animals affected (footnote)” value was 2/7; the “MOTOR DEPRESSION” value is “+”; the PTOSIS entry is listed as “+”; the “RESPIRATORY DEPRESSION” value is “+”. For the same compound, in series [3] (0.5 hr, 75 mg/kg ip), the “MOTOR DEPRESSION” value is on record as “+”, the PTOSIS entry is “+” and the “RESPIRATORY DEPRESSION” value was “+”. Moreover, in series [3] (3 hours, 75 mg/kg ip), the “toxicity (in words)” value is “flaccidity and loss of righting reflex”. Besides, in series [3] (3 hr, 75 mg/kg ip), the FLACCIDITY entry is reported as “+”, the “LOSS OF RIGHTING REFLEX” value is given as “+”, the “MOTOR DEPRESSION” value is given as “+” and the PTOSIS entry was “+”. Further, the “RESPIRATORY DEPRESSION” value in series [3] (3 hr, 75 mg/kg ip) is “+”. Moreover, the “prevention of PRA increases / inhibition of renin release (in words)” value in series [4] was “prevented to the same extent”. In series [5], the “arterial blood pressure and heart rate (in words)” value is “reducing arterial blood pressure and heart rate in hypertensive models”.

In the case of `OC[C@H]1O[C@@H](n2cnc3c(NC[C@@H](O)COc4cccc5ccccc45)ncnc32)[C@H](O)[C@@H]1O` [Compound II, N^6-[2R-hydroxy-3-(1-naphthalenyloxy)propyl]-adenosine], the “ataxia / motor toxicity (in words)” value in series [6] was “less ataxia at 0.5 or 3 hours as compared to compound I; also recorded: less motor toxicity than compound I”. Also, the ED (HR decrease by 100 b/min) in series [7] (Rattus norvegicus, iv, conscious SHR, I.V. in DMSO, N=5 per compound, read-out: IV DOSE TO DECREASE HR by 100 b/min) was 0.031 ± 0.0014 mg/kg. In addition, the ED (MAP decrease by 40 mmHg) in series [7] (Rattus norvegicus, iv, conscious SHR, I.V. in DMSO, N=5 per compound, read-out: IV DOSE TO DECREASE MAP by 40 mmHg) came out at 0.033 ± 0.0012 mg/kg. Moreover, in series [7] (setting [8]), the “MAXIMUM DECREASE AT 20 MG/KG ig: HR” value is recorded as 177 ± 19 b/min and the “MAXIMUM DECREASE AT 20 MG/KG ig: MAP” value is 50 ± 14 mmHg. In addition, the “solubility in MeOH (in words)” value in series [1] was “more soluble in MeOH”. Also, the “solubility (in words)” value in series [1] (R diastereomer, solvent not stated) is “different solubility”. Moreover, the “toxicity (in words)” value in series [3] (18-20 hours, 75 mg/kg ip) was “no toxicity was observed”. Besides, in series [3] (0.5 hr, 75 mg/kg ip), the “MOTOR DEPRESSION” value was “+”, the PTOSIS entry is “+” and the “RESPIRATORY DEPRESSION” value is reported as “+”. Besides, in series [3] (3 hr, 75 mg/kg ip), the “MOTOR DEPRESSION” value was “+”, the PTOSIS entry was “+” and the “RESPIRATORY DEPRESSION” value was “+”. In addition, the “overall toxicity compared with compound I (in words)” value in series [3] (mice, ip, ataxia and behavioral toxicity) is “substantially less toxic than compound I; also recorded: unexpectedly less toxic than compound I, both with regard to ataxia and behavioral toxicity; also recorded: less central nervous system toxicity than the racemic mixture”. In addition, the “prevention of PRA increases / inhibition of renin release (in words)” value in series [4] is listed as “prevented to the same extent”. Moreover, in series [4] (30 minutes after dosing), the “CHANGE IN PRA” value is -6.6 ngAI/ml/hr. Moreover, the “CHANGE IN PRA” value in series [4] (60 minutes after dosing) was -6.3 ngAI/ml/hr.
